# Measurements published in US20100130544A1, “USE OF PARASYM[…] ENHANCE AND […] CELL DIFFERENTIATION, RELATED METHODS AND COMPOSITIONS” (UNIVERSITA' DEGLI STUDI DI TORINO, priority 2006, published 2010).
# Legend:
# Synovial cells (SynCs) = assay: Phenotypic analysis (Western blotting, immunofluorescence) of synovial cells stimulated towards hepatocytic type + parasympatholytic; type: cell-based, human; settings: Synovial cells Hepatocytic type + parasympath. (HGF medium + 0.2 μg/mL scopolamine)
# Protocol: Synovial cells (SynCs) have been obtained from patients during exeresis and curettage of the synovial membrane inside the femoral-tibial joint cavity. Fresh synovial tissue sections have been disaggregated in collagenase (10 μg per mL of medium, Sigma) for two hours at 37° C. The pellet, washed twice in DMEM-LG (Gibco; Grand Island, N.Y., USA), free of any supplements, by centrifugation at 160 g for 10 minutes and then resuspended in complete low-glucose Dulbecco's modified Eagle's medium ([DMEM-LG] GIBCO; Grand Island, N.Y., USA) supplemented with 10% foetal bovine serum ([FBS] Sigma), 10 U/mL penicillin G, and 40 μg/mL gentamycin, is finally seeded into 75 cm^2 flasks and incubated in 5% CO2 at a temperature of 37° C. After 24 hours, the medium, along with any cells still in suspension, has been aspirated off and fresh medium (DMEM-LG, Gibco; Grand Island, N.Y., USA, supplemented with 10% FBS, Sigma, 10 U/mL penicillin G, and 40 μg/mL gentamycin) has been added over the adhered cells. The cells have been grown in 75 cm^2 flasks in an incubator with 5% CO2 at a temperature of 37° C. When the cells reach 80% confluence, they are detached using trypsin-EDTA (5 minutes incubation at 37° C. followed by the addition of 5 mL of pure FBS, and the detached cells in suspension are harvested), washed twice by centrifugation at 160 g for 7 minutes at 37° C. in DMEM-LG medium (Gibco; Grand Island, N.Y., USA) free of any supplements. The cells in the pellets thus obtained are resuspended at a concentration of 1×10^6 in fresh DMEM-LG medium (Gibco; Grand Island, N.Y., USA) supplemented with 10% foetal bovine serum ([FBS] Sigma), 10 U/mL penicillin G, and 40 μg/mL gentamycin. The cells have been reseeded after 1:4 dilution (final concentration 2.5×10^4). In this study, cells after the second passage in continuous culture have been used.
# As described above in detail, every seventh day of incubation samples of all confluent MSC and SynC cells have been subjected to immunofluorescence testing of samples adhered onto sell culture slides. […]
# Western blotting first makes use of denaturing electrophoresis (SDS-PAGE) in order to separate the various proteins according to molecular weight, by cancelling out the charges on the amino acids which might influence migration. […] The lysates thus obtained have been centrifuged at 12,000 rpm for 20 minutes at 4° C. and the supernatants collected; the protein concentrations of the samples have been measured using the Bio-Rad method (Benchmark Plus assay, Bio-Rad). […]
# THP-1 cells (PSC-THP1) = assay: Phenotypic analysis (Western blotting, immunofluorescence) of PSC-THP1 stimulated towards hepatocytic type + parasympatholytic; type: cell-based, human; set-up: key to expression of CD34: −−−−− = absence of any fluorescence; + = 1-5 fluorescent cells per optical field; ++ = 6-10 fluorescent cells per optical field; +++ = 10-20 fluorescent cells per optical field; ++++ = 20-50 fluorescent cells per optical field; +++++ > 50 fluorescent cells per optical field; settings: PSC-THP1 Hepatocytic type + parasympath. (HGF medium + 0.2 μg/mL scopolamine)
# Protocol: (§1) Furthermore, samples of the same cells, taken every seventh day of incubation, have been incubated for 5-8 minutes with 2% lidocaine (Sigma Aldrich, Milan, Italy) in PBS and the solution thus obtained harvested, as described in the bibliography.
# (§2) Western blotting first makes use of denaturing electrophoresis (SDS-PAGE) in order to separate the various proteins according to molecular weight, by cancelling out the charges on the amino acids which might influence migration. The cell samples, suspended in lysis buffer (1% SDS, 30 mM Tris pH 6.8, 5% glycerol) to which protease inhibitors (Protease Inhibitor Cocktail, Calbiochem, San Diego, Calif., USA) have been added, have been incubated for 30 minutes at 4° C. The lysates thus obtained have been centrifuged at 12,000 rpm for 20 minutes at 4° C. and the supernatants collected; the protein concentrations of the samples have been measured using the Bio-Rad method (Benchmark Plus assay, Bio-Rad). Prior to electrophoresis, the samples have been boiled for 5 minutes in the presence of beta-mercaptoethanol and bromophenol blue. The samples have been subjected to electrophoresis on a 12% gel (SDS-PAGE) and then transferred onto a PVDF membrane (Perkin Elmer Inc.). The membranes have been saturated with […] at room temperature and subsequently incubated overnight, at 4° C., with the following primary antibodies diluted 1:500 in PBS with 5% skimmed milk powder: anti-CD 34 (Santa Cruz Biotechnology, CA, USA), anti-CD 14 (Santa Cruz Biotechnology, CA, USA), anti-CD 45 (Santa Cruz Biotechnology, CA, USA), anti-CD 71 (Santa Cruz Biotechnology, CA, USA), anti-CD 90 (Santa Cruz Biotechnology, CA, USA), anti-CD 29 (Santa Cruz Biotechnology, CA, USA), anti-CD 105 (Santa Cruz Biotechnology, CA, USA), anti CD 117/c-KIT (Santa Cruz Biotechnology, CA, USA), anti c-MET (Santa Cruz Biotechnology, CA, USA), anti cytokeratin 7 (Santa Cruz Biotechnology, CA, USA), anti cytokeratin 8 (Santa Cruz Biotechnology, CA, USA), anti cytokeratin 18 (Santa Cruz Biotechnology, CA, USA), anti cytokeratin 19 (Santa Cruz Biotechnology, CA, USA), anti cytokeratin 7/17 (Santa Cruz Biotechnology, CA, USA), anti albumin (Rockland Immunochemicals, PA, USA), anti alpha-fetoprotein (Monosan Europa, Netherlands). After five washes, the membranes have been incubated with the corresponding secondary antibodies (1:1000) conjugated to horseradish peroxidase (HRP, SantaCruz Biotechnologies Inc., Santa Cruz, Calif., USA) for 1 hour at room temperature.
# (§3) Cells in suspension have been incubated with […] MitoTracker Red for 10 minutes at 37° C. […] After three washes in PBS, the cells have been resuspended in a solution of PBS and 0.1% Triton for 1 hour at 4° C. After three washes in PBS, the cells have been seeded onto slide covers and the liquid allowed to evaporate-off in air. The cells have been blocked with 20% normal goat serum for one hour, then incubated for 30 minutes with the following fluorescein isothiocyanate (FITC) conjugated anti-human monoclonal antibodies: anti-CD 34 (Santa Cruz Biotechnology, CA, USA), anti-CD 14 (Santa Cruz Biotechnology, CA, USA), anti-CD 45 (Santa Cruz Biotechnology, CA, USA), anti-CD 71 (Santa Cruz Biotechnology, CA, USA), anti-CD 90 (Santa Cruz Biotechnology, CA, USA), anti-CD 29 (Santa Cruz Biotechnology, CA, USA), anti-CD 105 (Santa Cruz Biotechnology, CA, USA), anti CD 117/c-KIT (Santa Cruz Biotechnology, CA, USA), anti c-KIT (Santa Cruz Biotechnology, CA, USA), anti c-MET (Santa Cruz Biotechnology, CA, USA), anti cytokeratin 7 (Santa Cruz Biotechnology, CA, USA), anti cytokeratin 8 (Santa Cruz Biotechnology, CA, USA), anti cytokeratin 18 (Santa Cruz Biotechnology, CA, USA), anti cytokeratin 19 (Santa Cruz Biotechnology, CA, USA), anti cytokeratin 7/17 (Santa Cruz Biotechnology, CA, USA), anti albumin (Rockland Immunochemicals, PA, USA), anti alpha-fetoprotein (Monosan Europa, Netherlands). […]
# [1] = tested on: Human mesenchymal pluripotent stem cells (MSCs); assay: Phenotypic analysis (Western blotting, immunofluorescence) of mesenchymal cells stimulated towards hepatocytic type + parasympatholytic; type: cell-based; settings: Mesenchymal cells Hepatocytic type + parasympath. (HGF medium + 0.2 μg/mL scopolamine)
# Description: Human mesenchymal pluripotent stem cells (MSCs, mesenchymal Stem Cells) have been extracted from samples of bone marrow (BM) taken from the femoral head (spongy tissue and bone marrow) during complete hip-replacement surgery. The nucleated cells have been separated by means of a density gradient (Ficoll-Paque, Amersham) and resuspended in low-glucose Dulbecco's modified Eagle's medium (DMEM-LG, Gibco, Grand Island, N.Y., USA) supplemented with 10% foetal bovine serum (FBS, Sigma), 10 U/mL penicillin G, and 40 μg/mL gentamycin. After 24 hours in culture, the medium, along with any cells in suspension, has been removed by aspiration and fresh medium added onto the adhered cells. The cells have been grown in 75 cm^2 flasks in an incubator with 5% CO2 at a temperature of 37° C. When the cells reach 80% confluence, they are detached using trypsin-EDTA (5 minutes incubation at 37° C. followed by the addition of 5 mL of pure FBS, and the detached cells in suspension are harvested), washed twice by centrifugation at 160 g for 7 minutes at 37° C. in DMEM-LG medium (Gibco; Grand Island, N.Y., USA) free of any supplements. The cells in the pellets thus obtained are resuspended at a concentration of 1×10^6 in fresh DMEM-LG medium (Gibco; Grand Island, N.Y., USA) supplemented with 10% foetal bovine serum (FBS, Sigma), 10 U/mL penicillin G, and 40 μg/mL gentamycin. The cells are reseeded after 1:4 dilution (final concentration 2.5×10^4). In this study, cells after the third passage in continuous culture have been used.
# As described above in detail, every seventh day of incubation samples of all confluent MSC and SynC cells have been subjected to immunofluorescence testing of samples adhered onto sell culture slides.
# Furthermore, every seventh day of incubation, samples of the same cells have been detached using trypsin-EDTA (5 minutes at a temperature of 37° C. followed by the addition of 5 mL of pure FBS and the detached cells in suspension harvested) and washed twice by centrifugation at 160 g for 7 minutes at 37° C. in DMEM-LG (Gibco; Grand Island, N.Y., USA) without any supplements.
# Western blotting first makes use of denaturing electrophoresis (SDS-PAGE) in order to separate the various proteins according to molecular weight, by cancelling out the charges on the amino acids which might influence migration. The cell samples, suspended in lysis buffer (1% SDS, 30 mM Tris pH 6.8, 5% glycerol) to which protease inhibitors (Protease Inhibitor Cocktail, Calbiochem, San Diego, Calif., USA) have been added, have been incubated for 30 minutes at 4° C. The lysates thus obtained have been centrifuged at 12,000 rpm for 20 minutes at 4° C. and the supernatants collected; the protein concentrations of the samples have been measured using the Bio-Rad method (Benchmark Plus assay, Bio-Rad). Prior to electrophoresis, the samples have been boiled for 5 minutes in the presence of beta-mercaptoethanol and bromophenol blue. The samples have been subjected to electrophoresis on a 12% gel (SDS-PAGE) and then transferred onto a PVDF membrane (Perkin Elmer Inc.). […]
# [2] = tested on: peripheral blood monocytes; assay: Phenotypic analysis (Western blotting, immunofluorescence) of monocytes stimulated towards hepatocytic type + parasympatholytic; type: cell-based, human; set-up: key to expression of CD34: −−−−− = absence of any fluorescence; + = 1-5 fluorescent cells per optical field; ++ = 6-10 fluorescent cells per optical field; +++ = 10-20 fluorescent cells per optical field; ++++ = 20-50 fluorescent cells per optical field; +++++ > 50 fluorescent cells per optical field; settings: monocytes Hepatocytic type + parasympath. (HGF medium + 0.2 μg/mL scopolamine)
# Protocol: as §1, §2, §3
compound,measurement,setting,value
"CN1[C@@H]2C[C@@H](OC(=O)[C@H](CO)c3ccccc3)C[C@H]1[C@@H]1O[C@@H]12 [scopolamine, [7(S)-(1α,2β,4β,5α,7β)]-α-(hydroxymethyl)acid benzenacetic-9-methyl-3-oxa-9-azatricyclo[3.3.1.02,4]non-7-yl-ester]",expression of CD71,Synovial cells (SynCs),++ (++ = 6-10 fluorescent cells per optical field)
same,expression of Human albumin,Synovial cells (SynCs),+++ (+++ = 10-20 fluorescent cells per optical field)
same,expression of alpha-fetoprotein,Synovial cells (SynCs),+ (+ = 1-5 fluorescent cells per optical field)
same,expression of c-KIT,Synovial cells (SynCs),+ (+ = 1-5 fluorescent cells per optical field)
same,expression of CD14,THP-1 cells (PSC-THP1),+ (+ = 1-5 fluorescent cells per optical field)
same,expression of CD34,THP-1 cells (PSC-THP1),−−−−−
same,expression of Cytokeratin 7,THP-1 cells (PSC-THP1),+++++ (+++++ > 50 fluorescent cells per optical field)
same,expression of Cytokeratin 8,THP-1 cells (PSC-THP1),++++ (++++ = 20-50 fluorescent cells per optical field)
same,expression of Cytokeratin 18,THP-1 cells (PSC-THP1),+++ (+++ = 10-20 fluorescent cells per optical field)
same,expression of Cytokeratin 19,THP-1 cells (PSC-THP1),+++++ (+++++ > 50 fluorescent cells per optical field)
same,expression of Cytokeratins 7/17,THP-1 cells (PSC-THP1),++++ (++++ = 20-50 fluorescent cells per optical field)
same,expression of Human albumin,THP-1 cells (PSC-THP1),+++++ (+++++ > 50 fluorescent cells per optical field)
same,expression of alpha-fetoprotein,THP-1 cells (PSC-THP1),++ (++ = 6-10 fluorescent cells per optical field)
same,expression of c-KIT,THP-1 cells (PSC-THP1),+ (+ = 1-5 fluorescent cells per optical field)
same,expression of c-Met,THP-1 cells (PSC-THP1),++ (++ = 6-10 fluorescent cells per optical field)
same,expression of CD29,[1],+ (+ = 1-5 fluorescent cells per optical field)
same,expression of CD71,[1],++ (++ = 6-10 fluorescent cells per optical field)
same,expression of CD90,[1],+ (+ = 1-5 fluorescent cells per optical field)
same,expression of CD105,[1],+ (+ = 1-5 fluorescent cells per optical field)
same,expression of Human albumin,[1],++ (++ = 6-10 fluorescent cells per optical field)
same,expression of alpha-fetoprotein,[1],+ (+ = 1-5 fluorescent cells per optical field)
same,expression of c-KIT,[1],+ (+ = 1-5 fluorescent cells per optical field)
same,expression of CD14,[2],+ (+ = 1-5 fluorescent cells per optical field)
same,expression of CD34,[2],−−−−−
same,expression of Cytokeratin 7,[2],+++++ (+++++ > 50 fluorescent cells per optical field)
same,expression of Cytokeratin 8,[2],++++ (++++ = 20-50 fluorescent cells per optical field)
same,expression of Cytokeratin 18,[2],+++ (+++ = 10-20 fluorescent cells per optical field)
same,expression of Cytokeratin 19,[2],+++++ (+++++ > 50 fluorescent cells per optical field)
same,expression of Cytokeratins 7/17,[2],++++ (++++ = 20-50 fluorescent cells per optical field)
same,expression of Human albumin,[2],+++++ (+++++ > 50 fluorescent cells per optical field)
same,expression of alpha-fetoprotein,[2],++ (++ = 6-10 fluorescent cells per optical field)
same,expression of c-KIT,[2],+ (+ = 1-5 fluorescent cells per optical field)
same,expression of c-Met,[2],++ (++ = 6-10 fluorescent cells per optical field)
